Here are results for nine compounds from US5648347A, “Arylmorpholine, preparation and use” (Glaxo Wellcome Inc., priority 1991, dated 1997).

Where a name gives a salt, the structure may show the parent alone.

What is called ED50 is the dose that gives a 50% effect, or the effect in half of the subjects.

The test concerns tetrabenazine-induced sedation. The experiment in a line: Antitetrabenazine Test: prevention of tetrabenazine-induced sedation in mice. It is filed as in vivo, Mouse (CD1 males). The following applies: 0.5 h; Antitetrabenazine Activity in the Mouse; compound ip 30 min before tetrabenazine hydrochloride (ip); scored 30 min after tetrabenazine; read-out: ED50 (amount of the test compound required to reverse the tetrabenazine effects in 50 percent of the animals tested). The method, then:
Prevention of tetrabenazine-induced sedation was measured using a modification of the method of Vernier et al., First Hahnemann Symposium on Psychosomatic Medicine, ed. Nodim and Moyer, pub. Lea and Febiger, Philadelphia, 1962.
Mice, groups of 12 CD1 males each, were injected intraperitoneally (ip) with the hydrochloride salt of a compound of formula (I) in physiological saline solution or with physiological saline solution alone. Thirty minutes later each of the mice was injected (ip, 35 mg/kg) with a solution of tetrabenazine hydrochloride. Thirty minutes after the injection of tetrabenazine each mouse was examined for its level of exploratory behavior which was scored on a modification of the arbitrary scale defined by Vernier et. al. The result reported in Table I as the ED50 value is the amount of the test compound required to reverse the tetrabenazine effects in 50 percent of the animals tested.
In the case of `C[C@H]1CO[C@H](c2cccc(F)c2)[C@@H](C)N1` (relative stereo) [Example 1, (+-)-(2R*,3R*,5S*)-2-(3-fluorophenyl)-3,5-dimethylmorpholine hydrochloride], the ED50 was determined as 4 mg/kg.
Consider `C[C@H]1CO[C@H](c2cccc(F)c2F)[C@@H](C)N1` (relative stereo) [Example 7, (+-)-(2R*,3R*,5S*)-2-(2,3-difluorophenyl)-3,5-dimethylmorpholine hydrochloride], for which the ED50 is 4 mg/kg.
The result for `C[C@H]1CO[C@H](c2ccc(F)cc2)[C@@H](C)N1` (relative stereo) [Example 13, (+-)-(2R*,3R*,5S*)-2-(4-fluorophenyl)-3,5-dimethylmorpholine hydrochloride] reads 4 mg/kg.
The result for `C[C@@H]1[C@@H](c2cccc(F)c2)OC[C@H](C)N1C` (relative stereo) [Example 14, (+-)-(2R*,3R*,5S*)-2-(3-fluorophenyl)-3,4,5-trimethylmorpholine hydrochloride] reads 8 mg/kg; that for `C[C@@H]1[C@@H](c2ccc(F)cc2)OC[C@H](C)N1C` (relative stereo) [Example 18, (+-)-(2R*,3R*,5S*)-2-(4-fluorophenyl)-3,4,5-trimethylmorpholine], 6 mg/kg.
Turning to `C[C@@H]1CO[C@@H](c2ccc(F)c(F)c2)[C@H](C)N1.Cl` [Example 2, (2S,3S,5R)-2-(3,4-difluorophenyl)-3,5-dimethylmorpholine hydrochloride], the ED50 is 8 mg/kg.
In the case of `C[C@H]1CO[C@H](c2ccc(F)cc2)[C@@H](C)N1` [Example 6, (2R,3R,5S)-2-(4-fluorophenyl)-3,5-dimethylmorpholine hydrochloride], the median effective dose (ED50) came to 10 mg/kg.
Regarding `C[C@@H]1CO[C@@H](c2ccc(F)cc2)[C@H](C)N1` [Example 12, (2S,3S,5R)-2-(4-fluorophenyl)-3,5-dimethylmorpholine hydrochloride], the ED50 came to 6 mg/kg.
As for `C[C@@H]1CO[C@@H](c2cccc(F)c2)[C@H](C)N1C` [Example 16, (2S,3S,5R)-2-(3-fluorophenyl)-3,4,5-trimethylmorpholine hydrochloride], the figure is 8 mg/kg.
